The text below walks through data of patent US7932262B2 (Novartis AG, priority 2006, dated 2011).

The test system of one assay is PC-3 cells. Briefly: Cell Proliferation Assay (Cell Titer Glo), PC-3 cell line. In kind it is cell-based. The conditions noted are these: Homo sapiens, PC-3, Cell Proliferation Assay, PC3; read-out: CPEC50 PC3. The procedure, abridged: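 PC-3 cells, 1000 cells/well, left to adhere 3-5 h, then exposed for 3 days at 37° C to compounds as 1:3 serial dilutions from 500× DMSO stocks diluted in growth medium. Medium then replaced with fresh medium and viability read by Cell Titer Glo luminescence.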
Background: In ATP-based viability assays light output follows the ATP content of the culture.

The next assay has as its target T1, PDK1 kinase (Homo sapiens, UniProt O15530).
T1 sequence (O15530 1-556): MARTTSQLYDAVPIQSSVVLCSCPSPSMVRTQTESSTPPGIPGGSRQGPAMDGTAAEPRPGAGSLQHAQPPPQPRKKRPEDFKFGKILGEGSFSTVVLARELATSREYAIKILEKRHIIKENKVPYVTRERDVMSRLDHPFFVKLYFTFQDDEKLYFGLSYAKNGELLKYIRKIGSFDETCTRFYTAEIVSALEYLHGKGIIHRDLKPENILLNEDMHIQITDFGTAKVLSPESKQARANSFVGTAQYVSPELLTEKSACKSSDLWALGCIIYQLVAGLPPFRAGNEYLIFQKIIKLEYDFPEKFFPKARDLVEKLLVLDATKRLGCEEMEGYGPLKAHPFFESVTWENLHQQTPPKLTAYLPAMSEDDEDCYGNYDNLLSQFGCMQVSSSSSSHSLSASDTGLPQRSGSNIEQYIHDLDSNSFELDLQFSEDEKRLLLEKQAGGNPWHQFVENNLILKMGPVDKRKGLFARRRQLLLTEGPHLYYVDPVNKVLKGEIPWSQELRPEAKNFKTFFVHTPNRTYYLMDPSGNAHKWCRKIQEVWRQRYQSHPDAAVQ
Briefly: PDK1 Kinase Alpha Screen Assay. In kind it is biochemical. As to conditions: PDK1 Kinase Alpha Screen Assay; read-out: PDK1 IC50. The procedure, abridged:
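Test compounds were incubated with PDK1 kinase, 10 uM ATP and 50 nM biotinylated peptide substrate for 3-18 hours at pH 7.5 with 2.5% DMSO. Peptide phosphorylation was then detected by AlphaScreen proximity luminescence using a phospho-(Ser/Thr) PKA substrate antibody.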

pEC50, pIC50: −log10 of the molar value. Bounds are passed on as bounds.

For the compound `O=C(O)c1cc(Nc2ncc3cccc(OC4CCNCC4)c3n2)ccc1N1CCOCC1` [Compound 449, 2-morpholino-5-(8-(piperidin-4-yloxy)quinazolin-2-ylamino)benzoic acid], the pEC50 in the assay on PC-3 cells was 5.00 to 5.30. In addition, on PDK1 kinase, the pIC50 (usually the negative decadic logarithm of the IC50, by convention in mol/L) was above 5.30.
The like results for `O=C(O)c1cc(Nc2ncc3cccc(OC4CCNCC4)c3n2)cc(C(F)(F)F)c1` [Compound 450] were, in that order, 5.00 to 5.30 and above 5.30.
On to `CCOC(=O)c1cc(F)cc(Nc2ncc3cccc(OC4CCNCC4)c3n2)c1` [Compound 451, ethyl 3-fluoro-5-(8-(piperidin-4-yloxy)quinazolin-2-ylamino)benzoate], for which the pEC50 in the assay on PC-3 cells is above 5.30. Further, the negative-log IC50 (pIC50) on PDK1 kinase was above 5.30.
With `FC(F)(F)c1cc(Br)cc(Nc2ncc3cccc(OC4CCNCC4)c3n2)c1` [Compound 452, N-(3-bromo-5-(trifluoromethyl)phenyl)-8-(piperidin-4-yloxy)quinazolin-2-amine], the pEC50 in the assay with PC-3 cells is above 5.30. Moreover, on PDK1 kinase, the pIC50 is above 5.30.
Take `CC(C)NC(=O)c1cc(Nc2ncc3cccc(OC4CCNCC4)c3n2)cc(C(F)(F)F)c1` [Compound 453, N-isopropyl-3-(8-(piperidin-4-yloxy)quinazolin-2-ylamino)-5-(trifluoromethyl)benzamide]: in the assay on PC-3 cells, the pEC50 is above 5.30. The pIC50 on PDK1 kinase is above 5.30.
Regarding `O=C(c1cc(Nc2ncc3cccc(OC4CCNCC4)c3n2)cc(C(F)(F)F)c1)N1CCOCC1` [Compound 454, morpholino(3-(8-(piperidin-4-yloxy)quinazolin-2-ylamino)-5-(trifluoromethyl)phenyl)methanone], in the assay with PC-3 cells, the pEC50 was 5.00 to 5.30. Moreover, the pIC50 on PDK1 kinase was above 5.30.
The like results for `CN(C)C(=O)c1cc(Nc2ncc3cccc(OC4CCNCC4)c3n2)ccc1N1CCOCC1` [Compound 455, N,N-dimethyl-2-morpholino-5-(8-(piperidin-4-yloxy)quinazolin-2-ylamino)benzamide] were, in that order, 5.00 to 5.30 and above 5.30.
The like results for `O=C(NC1CC1)c1cc(Nc2ncc3cccc(OC4CCNCC4)c3n2)ccc1N1CCOCC1` [Compound 456, N-cyclopropyl-2-morpholino-5-(8-(piperidin-4-yloxy)quinazolin-2-ylamino)benzamide] were, in that order, above 5.30 and above 5.30.
The like results for `Fc1cc(Nc2ncc3cccc(OC4CCNCC4)c3n2)ccc1N1CCOCC1` [Compound 457, N-(3-fluoro-4-morpholinophenyl)-8-(piperidin-4-yloxy)quinazolin-2-amine] were, in that order, above 5.30 and above 5.30.
As to `c1cc(OC2CCNCC2)c2nc(Nc3ccc(-c4cnco4)cc3)ncc2c1` [Compound 458, N-(4-(oxazol-5-yl)phenyl)-8-(piperidin-4-yloxy)quinazolin-2-amine], in the assay with PC-3 cells, the pEC50 is above 5.30. For the same compound, the pIC50 at PDK1 kinase is above 5.30.
Regarding `CN1CCN(c2ccc(-c3cccc4cnc(Nc5ccc(N6CCOCC6)c(F)c5)nc34)cc2)CC1` [Compound 459, N-(3-fluoro-4-morpholinophenyl)-8-(4-(4-methylpiperazin-1-yl)phenyl)quinazolin-2-amine], the pEC50 in the assay with PC-3 cells was above 5.30. Also, the negative-log IC50 (pIC50) on PDK1 kinase was above 5.30.
As to `Fc1cc(Nc2ncc3cccc(C4=CCNCC4)c3n2)ccc1N1CCOCC1` [Compound 460, N-(3-fluoro-4-morpholinophenyl)-8-(1,2,3,6-tetrahydropyridin-4-yl)quinazolin-2-amine], the pEC50 with PC-3 cells was above 5.30. The pIC50 at PDK1 kinase was above 5.30.
For `CC(C)NC(=O)c1cc(F)cc(Nc2ncc3cccc(OC4CCNCC4)c3n2)c1` [Compound 461, 3-fluoro-N-isopropyl-5-(8-(piperidin-4-yloxy)quinazolin-2-ylamino)benzamide], in the assay with PC-3 cells, the pEC50 is above 5.30. For the same compound, on PDK1 kinase, the pIC50 was above 5.30.
Turning to `O=C(c1cc(F)cc(Nc2ncc3cccc(OC4CCNCC4)c3n2)c1)N1CCOCC1` [Compound 462], in the assay with PC-3 cells, the pEC50 was above 5.30. In addition, the pIC50 on PDK1 kinase was above 5.30.
